# Experiments:
# [1] = test system: bone marrow derived macrophages (BMDMs); test: LPS-induced glycolysis in bone marrow derived macrophages (Seahorse); type: cell-based; details: BMDMs serum-starved 2 hours, LPS (10 ng/mL)+I-1 for 4 hours; Seahorse bioanalyzer
# Method: Differentiated bone marrow derived macrophages were serum-starved for 2 hours then treated with vehicle (Control), LPS (10 ng/mL) or LPS+ACLYi (I-1) for 4 hours. Glycolytic rate was assessed using Seahorse bioanalyzer.
# Il-1b mRNA = Il-1b mRNA by RT-qPCR; type: cell-based
# [2] = test system: bone marrow derived macrophages (BMDMs); test: LPS-induced glycolysis and inflammation in bone marrow derived macrophages; type: cell-based, mouse; details: 50 μM compound, 4 hours
# Method: Macrophage were isolated as follows: femurs and tibia were collected from mice, cleaned of any soft tissues and the ends were cut off from each bone. The tibia and femur were then transferred into 1.5 mL Eppendorf tubes and the marrow was extracted via centrifugation (1900 g×5 min), resuspended in DMEM and strained through a 40 μm strainer into a 50 ml falcon tube. The strainer was rinsed with an additional 40 mL of DMEM, the cell suspension was transferred to a T175 flask, an additional 60 mL of DMEM was added and the cells were cultured at 37° C. for 4 hours. Differentiation was initiated by adding 20 mL of L929 fibroblast conditioned media and 12 mL was plated on 100 mm dishes. The cells were then left for 7 days to differentiate into macrophages. The media was then aspirated, cells were scraped in 3 mL of DMEM, then pooled and diluted at a ratio of 1:2 with DMEM. The cell suspension was plated in 12-well plates and cells were allowed to adhere overnight. […] Changes in gene expression were calculated using 2-delta cT method. Macrophage glycolytic rates were assessed using a Seahorse Bioanalyzer (XFe96, Agilent Scientific Instruments). […] The following day cells were serum-starved for 2 hours then treated with LPS (100 ng/mL) and Compound I-1 (50 μM) and glycolytic rate was analyzed (Agilent Seahorse XFp Cell Energy Phenotype Test Kit, Cat #103275-100).
# [3] = test system: tumor cancer pathway gene panel; test: Nanostring nCounter Cancer panel gene expression in tumor of DEN-injected mice; type: in vivo, mouse; details: 100 mg/kg, 4 weeks
# Method: Nanostring Analysis. RNA was extracted from paired liver and tumor tissue from vehicle, Compound I-1 (100 mg/kg) and Compound I-32 (100 mg/kg) treated mice using an RNeasy kit (Qiagen, Calif., USA) as per manufacturer's protocol. All RNA samples passed the BioAnalyzer quality control test. The expression of target genes in liver and tumor were analyzed using the nCounter Fibrosis and Cancer Panel (NanoString Technologies, Inc., WA, USA), respectively according to manufacturer's protocol at the McMaster Genomics Facility. Technical and biological normalization against global geometric mean was performed in nSolver 4.0 software (NanoString Technologies). Technical normalization was performed in the nSolver software (version 4.0.70) by normalizing sample target raw counts to the geometric mean of positive control spike-ins. […] Pathway scores were calculated as the first principal component of the normalized expression values for all genes in each pathway and samples were compiled according to experimental groups to determine average pathway scores. Statistical significance was calculated between experimental groups using multiple t-tests and p-values were corrected for multiple comparisons using Benjamin-Hochberg false discovery rate. […]
structure (smiles),measurement,setting,value
"CC(C)(CCCCc1ccc(CCCCC(C)(C)C(=O)O)cc1)C(=O)O [Compound I-1, 6-[4-(5-carboxy-5-methylhexyl)-phenyl]-2,2-dimethylhexanoic acid]",LPS-induced glycolysis (glycolytic rate),[1],suppression
same,"marker of inflammation, Il-1b mRNA",Il-1b mRNA,suppression
same,"LPS-induced glycolysis (Seahorse) and inflammation (Il-6, Il-1b mRNA)",[2],suppression of LPS-induced glycolysis and inflammation
same,effects on tumor gene expression pathways related to cancer progression and survival,[3],exerted pronounced effects on gene expression pathways related to cancer progression and survival

# — US11730712B2, “Functionalized long-chain hydrocarbon mono- and di-carboxylic acids and derivatives thereof, and their use for the prevention or treatment of disease” (ESPERVITA THERAPEUTICS, INC., priority 2021, dated 2023)
